The text below walks through data of EP0555681A1, “Use of a combination of potassium channel activators and sulfhydryl containing compounds for the manufacture of a medicament for the treatment of ischemia and myocarolial infarct” (E.R. SQUIBB & SONS, INC., priority 1992, dated 1993).

Parameters in all cases: species or system Male Sprague-Dawley rats
The subject of experiment [1] is isolated rat hearts. Put plainly: Time to contracture during global ischemia in isolated rat hearts, with isobolographic analysis of the combination. The following applies: read-out: EC₅₀ for percentage change in time to contracture. How it is done:
(§1) anesthetized using 100 mg/kg sodium pentobarbital (i.p.). They were intubated and then treated with i.v. heparin (1000 U/kg). While mechanically ventilated, hearts were perfused in situ via retrograde cannulation of the aorta. The hearts were then excised and quickly moved to a Langendorff apparatus where they were perfused with Krebs-Henseleit bicarbonate buffer (112 mM sodium chloride, 25 mM sodium bicarbonate, 5 mM potassium chloride, 1.2 mM magnesium sulfate, 1 mM potassium diphosphate, 1.25 mM calcium chloride, 11.5 mM glucose and 2mM pyruvate bubbled with 95% oxygen - 5% carbon dioxide) at a constant perfusion pressure (75 mm Hg). A water-filled latex balloon, attached to a metal cannula, was inserted into the left ventricle and connected to a Statham pressure transducer for measurement of left ventricular pressure. The hearts were allowed to equilibrate for 15 minutes, at which time end diastolic pressure (EDP) was adjusted to 5 mm Hg and the balloon pressure was maintained for the duration of the experiment. Pre-ischemia or pre-drug function, heart rate and coronary flow (extracorporeal electromagnetic flow probe, Carolina Medical Electronics, King, N.C.) were then measured. Cardiac function was determined using double product of heart rate (HR) X left ventricular developed pressure (LVDP) divided by 1000. Cardiac temperature was maintained throughout the experiment by submerging the hearts in a heated chamber filled with 37°C buffer.
All hearts were retreated with vehicle or drug for 10 minutes before the onset of ischemia. All drugs were given only before ischemia. The hearts were subjected to 25 minutes of global ischemia and 30 minutes of reperfusion. At the end of the experiment, EDP and LDH release were measured and used as an index of severity of ischemia.
The effect of the combination of a potassium channel activator and a sulfhydryl containing compound was determined using a technique known as isobolographic analysis (R. J. Tallarida et al, "Minireview-Satistical Analysis of Drug-Drug and Site-Site Interactions with Isobolograms", Life Sciences, 45:947-961, 1989). This technique is commonly used to investigate the interaction between drugs.
Several specific concentration ratios (3:1, 12:1 and 30:1) of cromakalim to zofenopril respectively were tested and the effects of the combination determined. The concentration response curves for cromakalim and zofenopril were expressed as percentage increase in time to contracture from control. Time to contracture was measured as the time during ischemia for end diastolic pressure to increase by 5 mm Hg.
EC₅₀ for percentage change in time to contracture for cromakalim and zofenopril given alone or in the concentration ratios indicated were calculated.

Experiment [2] deals with isolated rat hearts. Put plainly: Global ischemia and reperfusion in isolated perfused (Langendorff) rat hearts: EDP, LDH release, double product. How it is done: as §1, with “The hearts were then excised and quickly moved to a Langendorff apparatus where they were perfused with Krebs-Henseleit bicarbonate buffer (112 mM sodium chloride, 25 mM sodium bicarbonate, 5 mM potassium chloride, 1.2 mM magnesium sulfate, 1 mM potassium diphosphate, 1.25 mM calcium chloride, 11.5 mM glucose and 2mM pyruvate bubbled with 95% oxygen - 5% carbon dioxide) at a constant perfusion pressure (75 mm Hg).” left out, “buffer. All hearts were retreated with vehicle or drug for 10 minutes before the onset of ischemia. All drugs were given only before ischemia. The hearts were subjected to 25 minutes of global ischemia and 30 minutes of reperfusion. At the end of the experiment, EDP and LDH release were measured and used as an index of severity of ischemia.” for “buffer.”
(LDH leaks from cells whose membrane has failed.)

Experiment [3] has as its system isolated rat hearts. The experiment is described as above. Particulars: 100 or 300 µM N-acetylcysteine; 30 minutes into reperfusion following 35 minutes of global ischemia (Fig. 3a, 3b).
Setting [4] is: given alone, time during ischemia for EDP to increase by 5 mm Hg.
The mark [5] stands for this setting: blocker (1 µM glyburide or 100 µM sodium 5-hydroxydecanoate) given with zofenopril prodrug (Fig. 1a).
The mark [6] stands for this setting: blocker (1 µM glyburide or 100 µM sodium 5-hydroxydecanoate) given with zofenopril prodrug (Fig. 1b).

Each structure is given as a SMILES string. Where two headings read alike, the source gives them in different places.

On to `CC1(C)Oc2ccc(C#N)cc2C(N2CCCC2=O)C1O` (racemic) [Cromakalim, (±)-6-cyano-3,4-dihydro-2,2-dimethyl-trans-4-(2-oxo-1-pyrrolidyl)-2H-benzo[6]-pyran-3-ol], for which the EC50 was 5.15 µM in the experiment with isolated rat hearts [1] (concentration ratio 3:1 cromakalim to zofenopril, cromakalim component); 5.96 µM in the experiment on isolated rat hearts [1] (concentration ratio 12:1 cromakalim to zofenopril, cromakalim component); 9.3 µM with isolated rat hearts [1] (concentration ratio 30:1 cromakalim to zofenopril, cromakalim component); 39.7 µM with isolated rat hearts [1] (setting [4]).

Regarding `COc1ccc(Cl)cc1C(=O)NCCc1ccc(S(=O)(=O)NC(=O)NC2CCCCC2)cc1` [Glyburide], in the experiment with isolated rat hearts [2] (1 µM glyburide with 400 µM zofenopril-SH (Fig. 2a, 2b)), the “reversal of the cardioprotective effect of zofenopril-SH” value is listed as “reverses the cardioprotective effect”. For the same compound, in the experiment on isolated rat hearts [2] (1 µM glyburide with N-acetylcysteine (Fig. 3a, 3b)), the “reversal of the protective effect of N-acetylcysteine” value is listed as “reversed”. Moreover, the “end diastolic pressure (EDP)” value in the experiment with isolated rat hearts [2] (setting [5]) is on record as “increase”. In addition, in the experiment on isolated rat hearts [2] (setting [6]), the “cumulative LDH release” value is listed as “increase”. In addition, the “reversal of the effects of penicillamine on double product and LDH release” value with isolated rat hearts [2] (glyburide with penicillamine (Fig. 4a, 4b)) is “partially reversed”.

Regarding `CC(=O)N[C@@H](CS)C(=O)O` [N-acetyl-cysteine, N-acetylcysteine], the “protection of ischemic cardiac tissue (EDP and cumulative LDH release)” value in the experiment with isolated rat hearts [3] is reported as “protected ischemic cardiac tissue”.

As for `CC(C)(S)[C@@H](N)C(=O)O` [Penicillamine], in the experiment with isolated rat hearts [2] (penicillamine (Fig. 4a, 4b)), the “protection of cardiac tissue” value is on record as “protects cardiac tissue”. Further, the LDH release result in the experiment with isolated rat hearts [2] (penicillamine (Fig. 4b)) was “significantly reduced”. For the same compound, in the experiment with isolated rat hearts [2] (penicillamine, HR x LVDP divided by 1000 (Fig. 4a)), the reperfusion double product result is “significantly improved”.

For the compound `C[C@H](CSC(=O)c1ccccc1)C(=O)N1C[C@@H](Sc2ccccc2)C[C@H]1C(=O)O` [Zofenopril], in the experiment on isolated rat hearts [2] (100 µM zofenopril, 30 minutes into reperfusion following 25 minutes of global ischemia (Fig. 1a)), the “end diastolic pressure (EDP)” value is given as “significantly reduced”. Moreover, in the experiment on isolated rat hearts [2] (100 µM zofenopril, 30 minutes into reperfusion following 25 minutes of global ischemia (Fig. 1b)), the “cumulative LDH release” value was “significantly reduced”. Also, the EC50 stood at 0.128 µM with isolated rat hearts [1] (concentration ratio 3:1 cromakalim to zofenopril, zofenopril component); 0.48 µM in the experiment with isolated rat hearts [1] (concentration ratio 12:1 cromakalim to zofenopril, zofenopril component); 0.29 µM in the experiment with isolated rat hearts [1] (concentration ratio 30:1 cromakalim to zofenopril, zofenopril component); 75 µM in the experiment on isolated rat hearts [1] (setting [4]).

In the case of `C[C@H](CS)C(=O)N1C[C@@H](Sc2ccccc2)C[C@H]1C(=O)O` [free-SH form of zofenopril], in the experiment with isolated rat hearts [2] (400 µM zofenopril-SH, 30 minutes into reperfusion following 25 minutes of global ischemia (Fig. 2a, 2b)), the “cardioprotective effect (EDP and cumulative LDH release)” value is “cardioprotective effect”.

Regarding `CCCCCC(O)CCCC(=O)[O-].[Na+]` (stereo not shown) [sodium-5-hydroxy-decanoate, sodium 5-hydroxydecanoate], the “end diastolic pressure (EDP)” value in the experiment on isolated rat hearts [2] (setting [5]) is reported as “increase”. Further, in the experiment on isolated rat hearts [2] (setting [6]), the “cumulative LDH release” value is on record as “increase”.
